Like-named read-outs stand apart in the source and are kept apart here.
Legend:
[1] = tested on: KB; assay: MTT cytotoxicity assay, KB (Table 2); type: cell-based; settings: 48 h incubation; for IC50: read-out: IC50 (μM) against KB
Description: (§1) The in vitro cytotoxicity studies of the synthesized compounds were performed in three different cell lines (HeLa, Hek, and KB). The activities of the herein described analogues were compared to that of rhein itself and doxorubicin. Due to the poor solubility of the compounds, all of the solutions used for biological testing were prepared using DMSO as solvent.

[2] = tested on: HeLa; assay: MTT cytotoxicity assay, HeLa (Table 2); settings: for IC50 / IC50 (μM) against HeLa: Table 2; for cytotoxicity against HeLa cells compared to rhein: in words
Description: as §1

[3] = tested on: Hek; assay: MTT cytotoxicity assay, Hek (Table 2); type: cell-based; settings: for IC50: read-out: IC50 (μM) against Hek
Description: as §1

[4] = tested on: HeLa; assay: MTT cytotoxicity evaluation of series 1 and 2 rhein analogues, HeLa (Tables 3, 4); type: cell-based; settings: for potency in HeLa cells compared with rhein: in words
[5] = tested on: MOLT4; assay: MTT cytotoxicity evaluation of series 1 and 2 rhein analogues, MOLT4 (Tables 3, 4); settings: for cytotoxicity against MOLT4 compared with rhein: in words
[6] = tested on: human NBMM cells; assay: WST cytotoxic assay on normal bone marrow mononuclear cells; type: cell-based; settings: concentration of 1-2 μM
Description: FIGS. 2a-2i are graphs showing the cytotoxicity of various Rhein analogues. Acute lymphoblastic leukemia (ALL) cell lines EU-1 (p53 normal) and EU-8 (p53 null) as well as normal human BM stroma cells were incubated with different concentrations of Rhein analogues as indicated for 24 h. Viability of cells was detected by Water soluble Tetrazolium (WST) dye assay. Data represent the mean percentage ±SD of the surviving cells (as compared to untreated controls) from three independent experiments.
The cytotoxic and inhibitory effects of the compounds described herein on normal human BM cells in vitro, as compared with doxorubicin was evaluated.

[7] = tested on: mice; assay: Toxicity in mice; type: in vivo; settings: single injection at a dose of 15/kg
Description: FIG. 6 is a table showing the estimated treatment doses and maximum tolerated dose (MTD) of MG1 in mice as compared with doxorubicin.
Toxicity was also evaluated in mice. […] Subsequently, a single injection of MG1 at a dose of 400 mg/kg was administered via injection.
[…]. Toxicity was also evaluated in mice. […] Subsequently, a single injection of MG1 at a dose of 400 mg/kg was administered via injection.

[8] = tested on: DNA damage; assay: Comet images, mechanism of cancer cell death; type: cell-based
[9] = Homo sapiens, HeLa, 48 h, read-out: IC50 (μM) against HeLa, MTT, 48 h incubation
[10] = Homo sapiens, HEK293, 48 h incubation
[11] = Homo sapiens, HeLa, MTT, Tables 3 and 4, read-out: IC50 (μM) against HeLa
[12] = Homo sapiens, MOLT-4, read-out: IC50 (μM) against MOLT4
[13] = read-out: IC50 (μM) against HeLa, MTT, 48 h incubation
[14] = MTT, Tables 3 and 4, read-out: IC50 (μM) against HeLa
[15] = read-out: IC50 (μM) against MOLT4, MTT, Tables 3 and 4

O=C(CCl)Nc1cc(O)c2c(c1)C(=O)c1cccc(O)c1C2=O [Compound 5, 1,8-Dihydroxy-3-(2′-chloro-acetamido)-anthraquinone]
IC50 (μM) against KB [1]: low micro molar | IC50 ([1]; Homo sapiens, KB, 48 h): 4.5 µM | IC50 [2, 9]: 4 µM | IC50 (μM) against HeLa ([2]; MTT, 48 h incubation): low micro molar | cytotoxicity against HeLa cells compared to rhein [2]: significant improvement | IC50 (μM) against Hek ([3]; 48 h incubation): low micro molar | IC50 [3, 10]: 4 µM

O=C(CBr)Nc1cc(O)c2c(c1)C(=O)c1cccc(O)c1C2=O [Compound 6, 1,8-Dihydroxy-3-(2′-bromo-acetamido)-anthraquinone]
IC50 ([1]; Homo sapiens, KB, 48 h): 15 µM | IC50 [2, 9]: 40 µM | times more potent than rhein against HeLa ([2]; ratio of IC50 values): 2.5 fold | IC50 [3, 10]: 8 µM

O=C(CI)Nc1cc(O)c2c(c1)C(=O)c1cccc(O)c1C2=O [Compound 7, 1,8-Dihydroxy-3-(2′-iodo-acetamido)-anthraquinone]
IC50 [4, 11]: 17 µM | IC50 ([1]; Homo sapiens, KB, 48 h): 9 µM | IC50 [2, 9]: 10 µM | IC50 [5, 12]: 10 µM | IC50 [3, 10]: 2 µM

O=C(CN1CCOCC1)Nc1cc(O)c2c(c1)C(=O)c1cccc(O)c1C2=O [Compound 9c, 1,8-dihydroxy-3-(2′-morpholino-acetamido)-anthraquinone]
IC50 [4, 11]: 13 µM | IC50 [5, 12]: 25 µM

O=C(CN1CCCCC1)Nc1cc(O)c2c(c1)C(=O)c1cccc(O)c1C2=O [Compound 9d, 1,8-Dihydroxy-3-(2′-piperidinyl-acetamido)-anthraquinone]
IC50 [4, 11]: 33 µM | IC50 [5, 12]: 4.1 µM

COc1cccc2c1C(=O)c1c(OC)cc(NC(=O)CBr)cc1C2=O [Compound 13, 1,8-dimethoxy-3-(2′-bromo-acetamido)-anthraquinone]
IC50 ([1]; Homo sapiens, KB, 48 h): 38 µM | IC50 [2, 9]: 8 µM | IC50 [3, 10]: 2.3 µM

COc1cccc2c1C(=O)c1c(OC)cc(NC(=O)CI)cc1C2=O [Compound 14, 1,8-dimethoxy-3-(2′-iodo-acetamido)-anthraquinone]
IC50 (μM) against KB [1]: low micro molar | IC50 ([1]; Homo sapiens, KB, 48 h): 10 µM | IC50 [2, 9]: 2.5 µM | IC50 (μM) against HeLa ([2]; MTT, 48 h incubation): low micro molar | cytotoxicity against HeLa cells compared to rhein [2]: significant improvement | IC50 (μM) against Hek ([3]; 48 h incubation): low micro molar | IC50 [3, 10]: 1.4 µM

O=C(CCl)NCCCCNC(=O)c1cc(O)c2c(c1)C(=O)c1cccc(O)c1C2=O [Compound 17, 1,8-Dihydroxy-3-(9′-chloro-aceta-2′,7′diamido)-anthraquinone]
IC50 [1]: 19 µM | IC50 [2, 13]: 16 µM | IC50 ([3]; 48 h incubation): 8 µM

O=C(CBr)NCCCCNC(=O)c1cc(O)c2c(c1)C(=O)c1cccc(O)c1C2=O [Compound 18, 1,8-Dihydroxy-3-(9′-bromo-aceta-2′,7′diamido)-anthraquinone]
IC50 (μM) against KB [1]: low micro molar | IC50 [1]: 4.8 µM | IC50 (μM) against HeLa ([2]; MTT, 48 h incubation): low micro molar | cytotoxicity against HeLa cells compared to rhein [2]: significant improvement | IC50 [2, 13]: 3 µM | IC50 (μM) against Hek ([3]; 48 h incubation): low micro molar | IC50 ([3]; 48 h incubation): 1.4 µM

O=C(CCl)NCCCOCCOCCOCCCNC(=O)c1cc(O)c2c(c1)C(=O)c1cccc(O)c1C2=O [Compound 21, 1,8-Dihydroxy-3-(18′-chloro-aceta-6′,9′,12′-trioxa-2′,16′-tridecanediamido)-anthraquinone]
IC50 [1]: 21 µM | IC50 [2, 13]: 14 µM | IC50 ([3]; 48 h incubation): 8 µM

O=C(CBr)NCCCOCCOCCOCCCNC(=O)c1cc(O)c2c(c1)C(=O)c1cccc(O)c1C2=O [Compound 22, 1,8-Dihydroxy-3-(18′-bromo-aceta-6′,9′,12′-trioxa-2′,16′-tridecanediamido)-anthraquinone]
IC50 [1]: 9 µM | IC50 [2, 13]: 7 µM | IC50 ([3]; 48 h incubation): 2.2 µM

O=C(CI)NCCCOCCOCCOCCCNC(=O)c1cc(O)c2c(c1)C(=O)c1cccc(O)c1C2=O [Compound 23, 1,8-Dihydroxy-3-(18′-iodo-aceta-6′,9′,12′-trioxa-2′,16′-tridecanediamido)-anthraquinone]
IC50 [1]: 8 µM | IC50 [2, 13]: 5.8 µM | IC50 ([3]; 48 h incubation): 4 µM

O=C1c2cccc(O)c2C(=O)c2c(O)cc(Sc3ccccc3)cc21 [Compound 24a, 1,8-Dihydroxy-3-(phenylthio)-anthraquinone]
potency increase compared with rhein, HeLa [4]: at least 30 fold | IC50 [4, 11]: 3.4 µM | IC50 (μM) against HeLa ([4]; MTT, Tables 3 and 4): single digit μM level | potency increase compared with rhein, MOLT4 [5]: at least 30 fold | IC50 [5, 12]: 1.4 µM | IC50 (μM) against MOLT4 ([5]; MTT, Tables 3 and 4): single digit μM level

Cc1noc(C)c1-c1cc(O)c2c(c1)C(=O)c1cccc(O)c1C2=O [Compound 26a, 1,8-Dihydroxy-3-(3′,5′-dimethyl-isoxazol-4′-yl)-anthraquinone]
IC50 [4, 14]: 16 µM | potency in HeLa cells compared with rhein [4]: moderate improvement in potency | IC50 [5, 15]: 14 µM

O=C1c2cccc(O)c2C(=O)c2c(O)cc(-c3cccs3)cc21 [Compound 26b, 1,8-Dihydroxy-3-(thiophen-2′-yl)-anthraquinone]
IC50 [4, 14]: > 100 µM | cytotoxicity against MOLT4 compared with rhein [5]: decreased cytotoxicity | IC50 [5, 15]: > 100 µM

Cc1cc(-c2cc(O)c3c(c2)C(=O)c2cccc(O)c2C3=O)ccc1N(C)C [Compound 26c, 1,8-Dihydroxy-3-(4′-dimethylamino-3′-methylphenyl)-anthraquinone]
IC50 [4, 11]: 68 µM | potency in HeLa cells compared with rhein [4]: moderate improvement in potency | IC50 [5, 12]: > 100 µM | cytotoxicity against MOLT4 compared with rhein [5]: decreased cytotoxicity

O=C1c2cccc(O)c2C(=O)c2c(O)cc(-c3ccc(Sc4ccccc4)nc3)cc21 [Compound 26d, 1,8-Dihydroxy-3-(6′-phenylthio-pyridin-3′-yl)-anthraquinone]
IC50 [4, 14]: > 100 µM | IC50 [5, 15]: 35 µM

CC(C)(C)OCc1ccc(-c2cc(O)c3c(c2)C(=O)c2cccc(O)c2C3=O)cc1 [Compound 26e, 1,8-Dihydroxy-3-(4′-t-butoxymethyl-phenyl)-anthraquinone]
IC50 [4, 11]: > 100 µM | IC50 [5, 12]: 22 µM

COc1ccc(-c2cc(O)c3c(c2)C(=O)c2cccc(O)c2C3=O)cc1 [Compound 26f, 1,8-Dihydroxy-3-(4′-methoxyphenyl)-anthraquinone]
IC50 [4, 11]: > 100 µM | IC50 ([4]; Homo sapiens, HeLa, less than 50% cells killed at highest concentration, R^2 < 0.8, read-out: IC50 (μM) against HeLa, value inside parenthesis calculated by Prism 4 using sigmoidal curve fitting): 20 µM | IC50 [5, 12]: 29 µM

O=C1c2cccc(O)c2C(=O)c2c(O)cc(-c3ccc(O)cc3)cc21 [Compound 26g, 1,8-Dihydroxy-3-(4′-hydroxyphenyl)-anthraquinone]
IC50 [4, 11]: 9.9 µM | potency in HeLa cells compared with rhein [4]: moderate improvement in potency | IC50 [5, 12]: 21 µM

COc1cccc2c1C(=O)c1c(O)c3c(c(O)c1C2=O)C[C@@](O)(C(=O)CO)C[C@@H]3O[C@H]1C[C@H](N)[C@H](O)[C@H](C)O1 [Doxorubicin, reference compound]
IC50 [4, 11]: 0.98 µM | IC50 ([1]; Homo sapiens, KB): 0.4 µM | human NBMM cells survived after treatment [6]: 40-50% | death of mice [7]: death of all mice at day 7 due to cardiac toxicity | IC50 [2, 9]: 1.4 µM | IC50 [2, 13]: 1.5 µM | mechanism of cancer cell death (DNA damage) [8]: induces cancer cell death through DNA damage | IC50 [5, 12]: 0.04 µM | IC50 [3, 10]: 0.15 µM

O=C(O)c1cc(O)c2c(c1)C(=O)c1cccc(O)c1C2=O [Rhein, reference compound]
IC50 [4, 11]: > 100 µM | IC50 [1]: > 100 µM | IC50 ([1]; Homo sapiens, KB, 48 h): ≥ 100 µM | IC50 [2, 9]: 100 µM | IC50 [2, 13]: > 100 µM | IC50 [5, 12]: 37 µM | IC50 [3, 10]: > 100 µM
